Data as given in patent publication US20150344540A1, “NOVEL GLP-1 RECEPTOR AGONISTS WITH CHOLESTEROL EFFLUX ACTIVITY” (NOVO NORDISK A/S, priority 2012, published 2015).
Read-outs that look alike come from different tables or passages of the source. Where a SMILES comes first, the peptide text is derived from it. [ ]: non-standard residue; d: D form. Aib = CC(C)(N)C(=O)O

Tests used:
[1] = test system: Mouse monocyte/macrophage cell line, RAW 264.7; assay: Cholesterol efflux assay (3H-cholesterol, macrophage cell line); format: cell-based; conditions: RAW 264.7, 4 hrs incubation, 0.1% human serum albumin, ABCA1-mediated efflux
human GLP-1 receptor [2] = target: T1, human GLP-1 receptor (Homo sapiens, UniProt P43220); assay: Functional GLP-1 receptor assay, in vitro potency (CRE luciferase; whole cells); format: cell-based; conditions: BHK cells expressing human GLP-1 receptor
Target sequence in this assay (P43220 24-463): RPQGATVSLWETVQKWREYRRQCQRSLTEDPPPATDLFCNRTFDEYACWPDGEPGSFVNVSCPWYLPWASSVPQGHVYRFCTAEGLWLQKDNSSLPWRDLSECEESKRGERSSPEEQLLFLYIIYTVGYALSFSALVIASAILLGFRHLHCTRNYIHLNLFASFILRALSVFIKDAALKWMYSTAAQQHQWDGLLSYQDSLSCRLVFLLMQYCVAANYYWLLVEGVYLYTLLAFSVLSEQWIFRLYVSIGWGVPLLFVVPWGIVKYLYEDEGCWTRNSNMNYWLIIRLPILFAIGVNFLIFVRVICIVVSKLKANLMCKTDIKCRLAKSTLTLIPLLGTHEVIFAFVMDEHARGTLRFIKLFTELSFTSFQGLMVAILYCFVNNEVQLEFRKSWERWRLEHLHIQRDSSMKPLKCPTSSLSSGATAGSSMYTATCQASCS

[3] = Pharmacokinetics in normal mice after i.v. and s.c. administration; format: in vivo, female C57B1/6J mice
[4] = Pharmacokinetics in mini-pigs after i.v. administration; conditions: female, Göttingen, minipig, plasma, iv, 5 nmol/kg
Summary of the method: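 Female Göttingen mini-pigs (15-20 kg, N=3) received 5 nmol/kg i.v. via central venous catheter. Plasma levels of N-terminally intact peptide measured by LOCI immunoassay with N-terminal and mid-/C-terminal antibodies; non-compartmental analysis of individual profiles.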

human GLP-1 receptor [5] = target: T1, human GLP-1 receptor
human GLP-1 receptor [6] = target: human GLP-1 receptor (human, UniProt P43220)
[7] = GLP1R CRE luc 1% HSA EC50 Mean Value, 1% HSA
[8] = female, C57B1/6J, mouse, plasma, sc
[9] = mice, s.c., Compound 1 dose 323 nmol/kg, Compound 5 dose 62 nmol/kg
[10] = T1/2 Mean Value, Göttingen mini-pigs, N=3
[11] = 0% HSA, read-out: GLP1R CRE luc 0% HSA EC50 Mean Value

Row | EC50 (human GLP-1 receptor [2]; [7]) [pM] | C0 [4] [nM] | Vd [4] [L/kg] | clearance [4] [mL/h/kg] | half-life [4, 10] [h] | CRE luciferase EC50, 0% HSA (human GLP-1 receptor [6]) [pM] | CRE luciferase EC50, 1% HSA (human GLP-1 receptor [6]) [pM] | Compound | 4 h Cholesterol Efflux Emax [1] [%] | other results
1 | 116 | 63.3 | 0.128 | 3.87 | 23 |  |  | CC[C@H](C)[C@H](NC(=O)[C@H](Cc1ccccc1)NC(=O)[C@H](CCC(=O)O)NC(=O)[C@H](CCCCN)NC(=O)[C@@H](NC(=O)[C@H](C)NC(=O)[C@H](CCC(=O)O)NC(=O)CNC(=O)[C@H](CCC(=O)O)NC(=O)[C@H](CC(C)C)NC(=O)[C@H](Cc1ccc(O)cc1)NC(=O)[C@H](CO)NC(=O)[C@H](CO)NC(=O)[C@@H](NC(=O)[C@H](CC(=O)O)NC(=O)[C@H](CO)NC(=O)[C@@H](NC(=O)[C@H](Cc1ccccc1)NC(=O)[C@@H](NC(=O)CNC(=O)[C@H](CCC(=O)O)NC(=O)C(C)(C)NC(=O)[C@@H](N)Cc1c[nH]cn1)[C@@H](C)O)[C@@H](C)O)C(C)C)C(C)C)C(=O)N[C@@H](C)C(=O)N[C@@H](Cc1c[nH]c2ccccc12)C(=O)N[C@@H](CC(C)C)C(=O)N[C@H](C(=O)N[C@@H](CCC(=O)O)C(=O)N[C@@H](CCCCN)C(=O)N[C@H](C(=O)N[C@@H](CCCCN)C(=O)N[C@@H](CCC(=O)O)C(=O)N[C@@H](Cc1c[nH]cn1)C(=O)N[C@@H](CC(C)C)C(N)=O)C(C)C)C(C)C [Compound 5, [Aib8,Glu23,Val25,Glu34,Lys35,Val36,Lys37]-GLP-1-(7-37)-peptidyl-Glu-His-Leu amide] (H-H[Aib]EGTFTSDVSSYLEGEAVKEFIAWLVEKVKEHL-NH2) | 111 | half-life ([3]; female, C57B1/6J, mouse, plasma, iv): 5.9 h; Vd ([3]; female, C57B1/6J, mouse, plasma, iv, read-out: Volume of distribution): 0.048 L/kg; Tmax [3, 8]: 4 h; half-life [3, 8]: 9.7 h; clearance ([3]; mice, i.v., Compound 1 dose 99 nmol/kg, Compound 5 dose 135 nmol/kg): 5.6 mL/h/kg; Volume of distribution [3, 9]: 0.1164 L/kg; clearance [3, 9]: 8.298 mL/h/kg; half-life ([4]; T1/2, mini-pigs): 23 h
2 | 111 | 86.9 | 0.0879 | 2.41 | 25.2 |  |  | CC[C@H](C)[C@H](NC(=O)[C@H](Cc1ccccc1)NC(=O)[C@H](CCC(=O)O)NC(=O)[C@H](CCCCN)NC(=O)[C@@H](NC(=O)[C@H](CCCCN)NC(=O)[C@H](CCC(=O)O)NC(=O)CNC(=O)[C@H](CCC(=O)O)NC(=O)[C@H](CC(C)C)NC(=O)[C@H](Cc1ccc(O)cc1)NC(=O)[C@H](CO)NC(=O)[C@H](CO)NC(=O)[C@@H](NC(=O)[C@H](CC(=O)O)NC(=O)[C@H](CO)NC(=O)[C@@H](NC(=O)[C@H](Cc1ccccc1)NC(=O)[C@@H](NC(=O)CNC(=O)[C@H](CCC(=O)O)NC(=O)C(C)(C)NC(=O)[C@@H](N)Cc1c[nH]cn1)[C@@H](C)O)[C@@H](C)O)C(C)C)C(C)C)C(=O)N[C@@H](C)C(=O)N[C@@H](Cc1c[nH]c2ccccc12)C(=O)N[C@@H](CC(C)C)C(=O)N[C@H](C(=O)N[C@@H](CCC(=O)O)C(=O)NCC(=O)NC(C)(C)C(=O)N[C@@H](CCCCN)C(=O)N[C@@H](CCC(=O)O)C(=O)N[C@@H](Cc1ccccc1)C(=O)N[C@@H](CC(C)C)C(N)=O)C(C)C [Compound 64, [Aib8,Glu23,Lys24,Val25,Glu34,Aib36,Lys37]-GLP-1-(7-37)-peptidyl-Glu-Phe-Leu amide] (H-H[Aib]EGTFTSDVSSYLEGEKVKEFIAWLVEG[Aib]KEFL-NH2) | 100 | 
3 | 25 | 155 | 0.0958 | 3.47 | 19 |  |  | CC[C@H](C)[C@H](NC(=O)[C@H](Cc1ccccc1)NC(=O)[C@H](CCC(=O)O)NC(=O)[C@H](CCCCN)NC(=O)[C@@H](NC(=O)[C@H](C)NC(=O)[C@H](CCC(=O)O)NC(=O)CNC(=O)[C@H](CCC(=O)O)NC(=O)[C@H](CC(C)C)NC(=O)[C@H](Cc1ccc(O)cc1)NC(=O)[C@H](CO)NC(=O)[C@H](CO)NC(=O)[C@@H](NC(=O)[C@H](CC(=O)O)NC(=O)[C@H](CO)NC(=O)[C@@H](NC(=O)[C@H](Cc1ccccc1)NC(=O)[C@@H](NC(=O)CNC(=O)[C@H](CCC(=O)O)NC(=O)C(C)(C)NC(=O)[C@@H](N)Cc1c[nH]cn1)[C@@H](C)O)[C@@H](C)O)C(C)C)C(C)C)C(=O)N[C@@H](CCC(N)=O)C(=O)N[C@@H](Cc1c[nH]cn1)C(=O)N[C@@H](CC(C)C)C(=O)N[C@H](C(=O)N[C@@H](CCC(=O)O)C(=O)N[C@@H](CCCCN)C(=O)N[C@@H](CC(C)C)C(=O)N[C@@H](CCCCN)C(=O)N[C@@H](CCC(=O)O)C(=O)N[C@@H](Cc1ccccc1)C(=O)N[C@@H](CC(C)C)C(N)=O)C(C)C [Compound 87, [Aib8,Glu23,Val25,Gln30,His31,Glu34,Lys35,Leu36,Lys37]-GLP-1-(7-37)-peptidyl-Glu-Phe-Leu amide] (H-H[Aib]EGTFTSDVSSYLEGEAVKEFIQHLVEKLKEFL-NH2) | 121 | EC50 (human GLP-1 receptor [2]; [11]): 77 pM
4 | 29 | 62.9 | 0.0809 | 4.99 | 11.2 |  |  | CC[C@H](C)[C@H](NC(=O)[C@H](Cc1ccccc1)NC(=O)[C@H](CCC(=O)O)NC(=O)[C@H](CCCCN)NC(=O)[C@@H](NC(=O)[C@H](C)NC(=O)[C@H](CCC(=O)O)NC(=O)CNC(=O)[C@H](CCC(=O)O)NC(=O)[C@H](CC(C)C)NC(=O)[C@H](Cc1ccc(O)cc1)NC(=O)[C@H](CO)NC(=O)[C@H](CO)NC(=O)[C@@H](NC(=O)[C@H](CC(=O)O)NC(=O)[C@H](CO)NC(=O)[C@@H](NC(=O)[C@H](Cc1ccccc1)NC(=O)[C@@H](NC(=O)CNC(=O)[C@H](CCC(=O)O)NC(=O)C(C)(C)NC(=O)[C@@H](N)Cc1c[nH]cn1)[C@@H](C)O)[C@@H](C)O)C(C)C)C(C)C)C(=O)N[C@@H](C)C(=O)N[C@@H](Cc1c[nH]c2ccccc12)C(=O)N[C@@H](CC(C)C)C(=O)N[C@H](C(=O)N[C@@H](CCC(=O)O)C(=O)N[C@@H](CCCCN)C(=O)N[C@H](C(=O)N[C@@H](CCCCN)C(=O)N[C@@H](CCC(=O)O)C(=O)N[C@@H](CCCCN)C(=O)N[C@@H](CC(C)C)C(N)=O)C(C)C)C(C)C [Compound 118, [Aib8,Glu23,Val25,Glu34,Lys35,Val36,Lys37]-GLP-1-(7-37)-peptidyl-Glu-Lys-Leu amide] (H-H[Aib]EGTFTSDVSSYLEGEAVKEFIAWLVEKVKEKL-NH2) | 136 | EC50 (human GLP-1 receptor [2]; [11]): 59 pM
5 |  |  |  |  |  |  |  | Exendin-4(1-39) (ligand) |  | CRE luciferase EC50, 0% HSA (human GLP-1 receptor [5]): 5 pM; CRE luciferase EC50, 1% HSA (human GLP-1 receptor [5]): 4 pM
6 |  |  |  |  |  | 1630 | 908 | [Aib2,Gly16,Lys17,Ala18,Arg20,Glu21,Leu27,Glu28,Lys29]-Glucagonyl-(1-29)-Aib-Lys-Glu-Phe-Leu amide (peptide) |  | 
7 |  |  |  |  |  | 591 | 297 | [Aib2,Gly16,Lys17,Arg20,Glu21,Leu27,Glu28,Lys29]-Glucagonyl-(1-29)-Aib-Lys-Glu-Phe-Leu amide (peptide) |  | 
8 |  |  |  |  |  | 80 | 49 | [Aib2,His3,Glu15,Glu16,Glu17,Ala18,Lys20,Glu21,Ile23,Ala24,Leu27,Glu28,Lys29]-Glucagonyl-(1-29)-Aib-Lys-Glu-Phe-Leu amide (peptide) |  | 
9 |  |  |  |  |  | 393 | 153 | [Aib2,Lys17,Ala18,Arg20,Glu21,Leu27,Glu28,Lys29]-Glucagonyl-(1-29)-Aib-Lys-Glu-Phe-Leu amide (peptide) |  | 
10 |  |  |  |  |  | 118 | 61 | [Glu15,Glu16,Gln17,Ala18,Lys20,Glu21,Ile23,Ala24,Leu27,Glu28,Lys29]-Glucagonyl-(1-29)-Aib-Lys-Glu-Phe-Leu amide (peptide) |  | 
11 |  |  |  |  |  | 86 | 44 | [Glu15,Glu16,Lys17,Ala18,Lys20,Glu21,Ile23,Ala24,Leu27,Glu28,Lys29]-Glucagonyl-(1-29)-Aib-Lys-Glu-Phe-Leu amide (peptide) |  | 
12 |  |  |  |  |  | 1170 | 588 | [Glu15,Glu16,Lys17,Lys18,Lys20,Glu21,Ile23,Ala24,Leu27,Glu28,Lys29]-Glucagonyl-(1-29)-Aib-Lys-Glu-Phe-Leu amide (peptide) |  | 
13 |  |  |  |  |  | 434 | 198 | [Lys17,Ala18,Arg20,Glu21,Leu27,Glu28,Lys29]-Glucagonyl-(1-29)-Aib-Lys-Glu-Phe-Leu amide (peptide) |  | 
